Reference: ChEMBL document CHEMBL1671626, “In vitro profiling of ceftaroline against a collection of recent bacterial clinical isolates from across the United States” (2008)

How the values were obtained:
Assay type in all cases: functional
Escherichia coli [1] = test: Antibacterial activity against ceftazidime-susceptible Escherichia coli assessed as resistant isolates by CLSI M7-A7 broth microdilution method
Proteus mirabilis [2] = test: Antibacterial activity against ceftazidime-susceptible Proteus mirabilis by CLSI M7-A7 broth microdilution method
Streptococcus pneumoniae [3] = test: Antibacterial activity against penicillin-resistant Streptococcus pneumoniae by CLSI M7-A7 broth microdilution method
Staphylococcus aureus [4] = test: Antibacterial activity against methicillin-resistant Staphylococcus aureus assessed as resistant isolates by CLSI M7-A7 broth microdilution method
Enterobacteriaceae [5] = test: Antibacterial activity against ceftazidime-susceptible Enterobacteriaceae by CLSI M7-A7 broth microdilution method
Citrobacter freundii [6] = test: Antibacterial activity against ceftazidime-nonsusceptible Citrobacter freundii by CLSI M7-A7 broth microdilution method
Enterobacteriaceae [7] = test: Antibacterial activity against ceftazidime-nonsusceptible Enterobacteriaceae assessed as susceptible isolates by CLSI M7-A7 broth microdilution method
Klebsiella pneumoniae [8] = test: Antibacterial activity against ceftazidime-nonsusceptible Klebsiella pneumoniae by CLSI M7-A7 broth microdilution method
Klebsiella pneumoniae [9] = test: Antibacterial activity against ceftazidime-susceptible Klebsiella pneumoniae assessed as susceptible isolates by CLSI M7-A7 broth microdilution method
Staphylococcus aureus [10] = test: Antibacterial activity against methicillin-susceptible Staphylococcus aureus assessed as resistant isolates by CLSI M7-A7 broth microdilution method
Acinetobacter [11] = test: Antibacterial activity against imipenem-susceptible Acinetobacter assessed as susceptible isolates by CLSI M7-A7 broth microdilution method
Streptococcus viridans [12] = test: Antibacterial activity against penicillin-susceptible Streptococcus viridans by CLSI M7-A7 broth microdilution method
Enterobacter cloacae [13] = test: Antibacterial activity against ceftazidime-susceptible Enterobacter cloacae assessed as susceptible isolates by CLSI M7-A7 broth microdilution method
Haemophilus influenzae [14] = test: Antibacterial activity against beta lactamase-positive Haemophilus influenzae assessed as susceptible isolates by CLSI M7-A7 broth microdilution method
Streptococcus viridans [15] = test: Antibacterial activity against penicillin-nonsusceptible Streptococcus viridans by CLSI M7-A7 broth microdilution method
Enterobacter cloacae [16] = test: Antibacterial activity against ceftazidime-susceptible Enterobacter cloacae assessed as resistant isolates by CLSI M7-A7 broth microdilution method
Escherichia coli [17] = test: Antibacterial activity against ceftazidime-susceptible Escherichia coli assessed as susceptible isolates by CLSI M7-A7 broth microdilution method
Acinetobacter [18] = test: Antibacterial activity against imipenem-susceptible Acinetobacter by CLSI M7-A7 broth microdilution method
Enterobacter cloacae [19] = test: Antibacterial activity against ceftazidime-nonsusceptible Enterobacter cloacae assessed as resistant isolates by CLSI M7-A7 broth microdilution method
Providencia sp. [20] = test: Antibacterial activity against ceftazidime-susceptible Providencia sp. assessed as resistant isolates by CLSI M7-A7 broth microdilution method
Streptococcus pyogenes = test: Antibacterial activity against erythromycin-nonsusceptible Streptococcus pyogenes by CLSI M7-A7 broth microdilution method
Escherichia coli [21] = test: Antibacterial activity against ceftazidime-nonsusceptible Escherichia coli assessed as resistant isolates by CLSI M7-A7 broth microdilution method
Staphylococcus aureus [22] = test: Antibacterial activity against coagulase-negative and oxacillin-susceptible Staphylococcus aureus assessed as resistant isolates by CLSI M7-A7 broth microdilution method
Acinetobacter [23] = test: Antibacterial activity against multidrug-resistant Acinetobacter assessed as resistant isolates by CLSI M7-A7 broth microdilution method
Staphylococcus aureus [24] = test: Antibacterial activity against coagulase-negative and oxacillin-resistant Staphylococcus aureus assessed as susceptible isolates by CLSI M7-A7 broth microdilution method
Haemophilus influenzae [25] = test: Antibacterial activity against beta lactamase-negative Haemophilus influenzae assessed as susceptible isolates by CLSI M7-A7 broth microdilution method
Acinetobacter [26] = test: Antibacterial activity against multidrug-resistant Acinetobacter assessed as susceptible isolates by CLSI M7-A7 broth microdilution method
Escherichia coli [27] = test: Antibacterial activity against ceftazidime-nonsusceptible Escherichia coli by CLSI M7-A7 broth microdilution method
Providencia sp. [28] = test: Antibacterial activity against ceftazidime-susceptible Providencia sp. assessed as susceptible isolates by CLSI M7-A7 broth microdilution method
Moraxella catarrhalis = test: Antibacterial activity against beta lactamase-positive Moraxella catarrhalis by CLSI M7-A7 broth microdilution method
Streptococcus pneumoniae [29] = test: Antibacterial activity against penicillin-resistant Streptococcus pneumoniae assessed as resistant isolates by CLSI M7-A7 broth microdilution method
Streptococcus pneumoniae [30] = test: Antibacterial activity against penicillin-susceptible Streptococcus pneumoniae assessed as susceptible isolates by CLSI M7-A7 broth microdilution method
Citrobacter freundii [31] = test: Antibacterial activity against ceftazidime-nonsusceptible Citrobacter freundii assessed as susceptible isolates by CLSI M7-A7 broth microdilution method
Streptococcus agalactiae [32] = test: Antibacterial activity against erythromycin-susceptible Streptococcus agalactiae by CLSI M7-A7 broth microdilution method
Streptococcus agalactiae [33] = test: Antibacterial activity against erythromycin-nonsusceptible Streptococcus agalactiae by CLSI M7-A7 broth microdilution method
Enterobacteriaceae [34] = test: Antibacterial activity against ceftazidime-nonsusceptible Enterobacteriaceae assessed as resistant isolates by CLSI M7-A7 broth microdilution method
Proteus mirabilis [35] = test: Antibacterial activity against ceftazidime-susceptible Proteus mirabilis assessed as resistant isolates by CLSI M7-A7 broth microdilution method
Staphylococcus aureus [36] = test: Antibacterial activity against methicillin-susceptible Staphylococcus aureus by CLSI M7-A7 broth microdilution method
Staphylococcus aureus [37] = test: Antibacterial activity against coagulase-negative and oxacillin-resistant Staphylococcus aureus by CLSI M7-A7 broth microdilution method
Acinetobacter [38] = test: Antibacterial activity against multidrug-resistant Acinetobacter by CLSI M7-A7 broth microdilution method
Haemophilus influenzae [39] = test: Antibacterial activity against beta lactamase-positive Haemophilus influenzae by CLSI M7-A7 broth microdilution method
Enterobacteriaceae [40] = test: Antibacterial activity against ceftazidime-susceptible Enterobacteriaceae assessed as resistant isolates by CLSI M7-A7 broth microdilution method
Haemophilus influenzae [41] = test: Antibacterial activity against beta lactamase-negative Haemophilus influenzae by CLSI M7-A7 broth microdilution method
Enterobacteriaceae [42] = test: Antibacterial activity against ceftazidime-susceptible Enterobacteriaceae assessed as susceptible isolates by CLSI M7-A7 broth microdilution method
Klebsiella pneumoniae [43] = test: Antibacterial activity against ceftazidime-susceptible Klebsiella pneumoniae assessed as resistant isolates by CLSI M7-A7 broth microdilution method

`C[C@H]1COc2c(N3CCN(C)CC3)c(F)cc3c(=O)c(C(=O)O)cn1c23.C[C@H]1COc2c(N3CCN(C)CC3)c(F)cc3c(=O)c(C(=O)O)cn1c23.O` [LEVOFLOXACIN] was tested, and the Activity (Escherichia coli [1]) was 13.6%, the MIC50 (Proteus mirabilis [2]) was 0.06 µg/mL and the MIC90 (Proteus mirabilis [2]) was 16 µg/mL. For the same molecule, the MIC50 (Streptococcus pneumoniae [3]) was 0.5 µg/mL, the MIC90 (Streptococcus pneumoniae [3]) was 1 µg/mL and the Activity (Staphylococcus aureus [4]) was 73.2%. For the same molecule, the MIC50 (Enterobacteriaceae [5]) was 0.06 µg/mL, the MIC90 (Enterobacteriaceae [5]) was 4 µg/mL and the MIC50 (Citrobacter freundii [6]) was 0.25 µg/mL. It also gave an MIC90 (Citrobacter freundii [6]) of 16 µg/mL, an Activity (Enterobacteriaceae [7]) of 41.8% and an MIC50 (Klebsiella pneumoniae [8]) of 8 µg/mL. The MIC90 (Klebsiella pneumoniae [8]) was over 16 µg/mL, the Activity (Klebsiella pneumoniae [9]) was 98.1% and the Activity (Staphylococcus aureus [10]) was 15.2%. The Activity (Acinetobacter [11]) was 51.1%, the MIC50 (Streptococcus viridans [12]) was 1 µg/mL and the MIC90 (Streptococcus viridans [12]) was 1 µg/mL. The Activity (Enterobacter cloacae [13]) was 94%, the Activity (Haemophilus influenzae [14]) was 100% and the MIC50 (Streptococcus viridans [15]) was 1 µg/mL. For the same molecule, the MIC90 (Streptococcus viridans [15]) was 2 µg/mL, the Activity (Enterobacter cloacae [16]) was 2% and the Activity (Escherichia coli [17]) was 86.4%. The MIC50 (Acinetobacter [18]) was 0.5 µg/mL, the MIC90 (Acinetobacter [18]) was over 16 µg/mL and the Activity (Enterobacter cloacae [19]) was 25.7%. For the same molecule, the Activity (Providencia sp. [20]) was 25.9%, the MIC50 (Streptococcus pyogenes) was 0.5 µg/mL and the MIC90 (Streptococcus pyogenes) was 1 µg/mL. For the same molecule, the Activity (Escherichia coli [21]) was 85.7%, the Activity (Staphylococcus aureus [22]) was 17.9% and the Activity (Acinetobacter [23]) was 87.5%. For the same molecule, the Activity (Staphylococcus aureus [24]) was 21.7%, the Activity (Haemophilus influenzae [25]) was 100% and the Activity (Acinetobacter [26]) was 6.3%. For the same molecule, the MIC50 (Escherichia coli [27]) was over 16 µg/mL, the MIC90 (Escherichia coli [27]) was over 16 µg/mL and the Activity (Providencia sp. [28]) was 66.7%. The MIC (Moraxella catarrhalis) was at most 0.03 µg/mL, the MIC50 (Moraxella catarrhalis) was at most 0.03 µg/mL and the MIC90 (Moraxella catarrhalis) was at most 0.03 µg/mL. It also gave an Activity (Streptococcus pneumoniae [29]) of 0.7%, an Activity (Streptococcus pneumoniae [30]) of 98.5% and an Activity (Citrobacter freundii [31]) of 72.7%. The MIC50 (Streptococcus agalactiae [32]) was 0.5 µg/mL, the MIC90 (Streptococcus agalactiae [32]) was 1 µg/mL and the MIC50 (Streptococcus agalactiae [33]) was 1 µg/mL. The MIC90 (Streptococcus agalactiae [33]) was 1 µg/mL, the Activity (Enterobacteriaceae [34]) was 51.4% and the Activity (Proteus mirabilis [35]) was 20.7%. It also gave an MIC50 (Staphylococcus aureus [36]) of 0.12 µg/mL, an MIC90 (Staphylococcus aureus [36]) of 16 µg/mL and an MIC50 (Staphylococcus aureus [37]) of 8 µg/mL. For the same molecule, the MIC90 (Staphylococcus aureus [37]) was over 16 µg/mL, the MIC50 (Acinetobacter [38]) was 16 µg/mL and the MIC50 (Haemophilus influenzae [39]) was 0.015 µg/mL. The MIC90 (Haemophilus influenzae [39]) was 0.03 µg/mL, the Activity (Enterobacteriaceae [40]) was 9.4% and the MIC50 (Haemophilus influenzae [41]) was 0.015 µg/mL. The MIC90 (Haemophilus influenzae [41]) was 0.03 µg/mL, the Activity (Enterobacteriaceae [42]) was 89.6% and the Activity (Klebsiella pneumoniae [43]) was 1.4%.
